Measured values as given in PMC9750858, “Rapid biosensor development using plant hormone receptors as reprogrammable scaffolds” (Nature Biotechnology, 2022).
“And” between values parts separate entries of the source, which are not always exact repeats. Equal values may be shown once.

Columns and labels:
[1] = system: PYR1-derived cannabinoid receptors (PYR1 mutants) binding HAB1; conditions: for selectivity of Y2H response of the sensor evolved for the ligand: PYR1^CBDA or PYR1^CP 47,497, all ligands tested at 25 µM; for cannabinoid concentration to which CB-S1 library clones respond (as low as): clones from shuffled library CB-S1
[2] = target: PYR1^DIAZI (Arabidopsis thaliana, UniProt O49686, A160V/E8G/F108Y/F159G/L87M/M158V/V81Y); experiment: Split NanoLuc luciferase complementation in yeast, NLuc^N-PYR1^DIAZI/NLuc^C-HAB1; format: cell-based; parameters: >PYR1-DIAZI; expressed in transfected cells; host or cells: Saccharomyces cerevisiae BY4742; conditions: Figure 4f(top), 3 replicates
[3] = target: T1, PYR1^PIRI (Arabidopsis thaliana, UniProt O49686, A160T/E130G/F159T/K59R/N119S/S122Q/S92M/V174A); experiment: Split NanoLuc luciferase complementation in yeast, NLuc^N-PYR1^PIRI/NLuc^C-HAB1; format: cell-based; conditions: Figure 4f(bottom), replicates
T1 construct: >PYR1-PIRI; expressed in transfected cells; host or cells: Saccharomyces cerevisiae BY4742

[4] = target: T2, PYR1^WIN-M (Arabidopsis thaliana, UniProt O49686, A160I/D26G/E4G/F159A/H60P/K59Q/N90S/Y23H); experiment: ELISA-like plate assay, immobilized PYR1^WIN-M, biotinylated ΔN-HAB1^T+; format: binding; conditions: replicates
T2 construct: made in house
T2 sequence (O49686 with tags, fused parts or gaps E4G/Y23H/D26G/K59Q/H60P/N90S/F159A/A160I): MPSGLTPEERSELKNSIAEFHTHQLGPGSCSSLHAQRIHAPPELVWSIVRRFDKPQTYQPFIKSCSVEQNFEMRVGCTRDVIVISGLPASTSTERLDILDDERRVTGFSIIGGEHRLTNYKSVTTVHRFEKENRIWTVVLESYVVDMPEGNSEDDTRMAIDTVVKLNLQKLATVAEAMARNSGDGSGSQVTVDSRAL

T1 sequence (O49686 other isoform, or with tags, fused parts or gaps K59R/S92M/N119S/S122Q/E130G/F159T/A160T/V174A): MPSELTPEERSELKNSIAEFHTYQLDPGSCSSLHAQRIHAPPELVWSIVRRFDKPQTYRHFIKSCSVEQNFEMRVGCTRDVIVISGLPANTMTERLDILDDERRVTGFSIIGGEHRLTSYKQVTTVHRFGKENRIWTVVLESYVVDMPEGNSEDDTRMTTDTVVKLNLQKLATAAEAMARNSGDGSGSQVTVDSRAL
T1 sequence (Q9CAJ0 179-511, further chain): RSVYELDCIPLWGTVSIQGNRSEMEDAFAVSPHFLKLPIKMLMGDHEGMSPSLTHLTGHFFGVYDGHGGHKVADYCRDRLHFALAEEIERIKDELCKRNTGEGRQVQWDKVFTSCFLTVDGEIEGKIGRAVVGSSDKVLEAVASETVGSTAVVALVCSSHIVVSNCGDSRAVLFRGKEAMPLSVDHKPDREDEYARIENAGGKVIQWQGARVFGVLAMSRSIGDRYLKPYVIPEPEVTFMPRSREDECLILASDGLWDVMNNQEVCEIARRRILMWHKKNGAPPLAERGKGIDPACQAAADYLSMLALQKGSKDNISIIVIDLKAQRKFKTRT
Sequence of PYR1^DIAZI (Q9CAJ0 179-511): as the sequence (Q9CAJ0 179-511, further chain) above
Sequence of PYR1^DIAZI (O49686 other isoform, or with tags, fused parts or gaps E8G/V81Y/L87M/F108Y/M158V/F159G/A160V): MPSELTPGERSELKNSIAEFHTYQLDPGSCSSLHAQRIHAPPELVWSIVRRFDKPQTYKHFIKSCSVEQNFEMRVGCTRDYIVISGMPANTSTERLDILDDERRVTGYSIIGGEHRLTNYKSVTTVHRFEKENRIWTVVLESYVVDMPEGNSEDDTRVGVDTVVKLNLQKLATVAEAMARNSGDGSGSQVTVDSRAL

SMILES | cannabinoid concentration to which CB-S1 library clones respond (as low as) [1] [nM] | Sensor signal (Figure 4f top), replicate values ([2]; [Agonist] 1e-5 nM) | Sensor signal (Figure 4f top), replicate values ([2]; [Agonist] 0.5 nM) | Sensor signal (Figure 4f top), replicate values ([2]; [Agonist] 1 nM) | Sensor signal (Figure 4f top), replicate values ([2]; [Agonist] 10 nM) | Sensor signal (Figure 4f top), replicate values ([2]; [Agonist] 100 nM) | Sensor signal (Figure 4f top), replicate values ([2]; [Agonist] 1000 nM) | Sensor signal (Figure 4f top), replicate values ([2]; [Agonist] 10000 nM) | Sensor signal (Figure 4f top), replicate values ([2]; [Agonist] 100000 nM) | Sensor signal (Figure 4f bottom), replicate values ([3]; [Agonist] 1e-5 nM) | Sensor signal (Figure 4f bottom), replicate values ([3]; [Agonist] 0.5 nM) | Sensor signal (Figure 4f bottom), replicate values ([3]; [Agonist] 1 nM) | Sensor signal (Figure 4f bottom), replicate values ([3]; [Agonist] 10 nM) | Sensor signal (Figure 4f bottom), replicate values ([3]; [Agonist] 100 nM) | Sensor signal (Figure 4f bottom), replicate values ([3]; [Agonist] 1000 nM) | Sensor signal (Figure 4f bottom), replicate values ([3]; [Agonist] 10000 nM) | Sensor signal (Figure 4f bottom), replicate values ([3]; [Agonist] 100000 nM) | also measured
C=C(C)[C@@H]1CCC(C)=C[C@H]1c1c(O)cc(CCCCC)c(C(=O)O)c1O [CBDA, cannabidiolic acid] | – | – | – | – | – | – | – | – | – | – | – | – | – | – | – | – | – | selectivity of Y2H response of the sensor evolved for the ligand [1]: selectively responds
CCCn1c(C)c(C(=O)c2cccc3ccccc23)c2ccccc21 [JWH-015] | 100 | – | – | – | – | – | – | – | – | – | – | – | – | – | – | – | – | –
CCCCn1c(C)c(C(=O)c2cccc3ccccc23)c2ccccc21 [JWH-016] | 50 | – | – | – | – | – | – | – | – | – | – | – | – | – | – | – | – | –
CCOP(=S)(OCC)Oc1ccc2c(C)c(Cl)c(=O)oc2c1 [Coumaphos] | – | 16.388 and 9.752 and 14.788 | 30.8829 and 12.1724 and 17.852 | 36.8131 and 33.8683 and 15.2635 | 15.4966 and 64.9896 and 15.1391 | 12.996 and 65.6413 and 15.942 | 21.5139 and 73.8437 and 25.5745 | 81.7848 and 47.8146 and 79.9027 | 105.044 and 22.805 and 29.2791 | 11.6429 and 18.6581 and 9.869 | 10.5853 and 39.7892 and 9.475 | 12.0486 and 19.9282 and 8.797 | 7.164 and 12.4287 and 9.583 | 8.8955 and 12.6369 and 17.1023 | 9.4868 and 11.2169 and 22.673 | 12.3815 and 19.3959 and 83.5281 | 9.584 and 13.286 and 71.6379 | –
COP(=S)(OC)Oc1ccc([N+](=O)[O-])cc1 [Parathion-methyl, parathion-methyl] | – | 15.0369 and 11.1106 and 15.282 | 71.449 and 15.1942 and 16.4674 | 69.4998 and 48.0045 and 15.815 | 30.1106 and 67.3607 and 15.8069 | 15.5477 and 62.6829 and 17.0922 | 34.4735 and 76.5381 and 29.0859 | 73.5456 and 54.5583 and 65.8713 | 78.279 and 10.2013 and 20.8749 | 11.8454 and 17.8157 and 9.952 | 11.1865 and 13.661 and 9.612 | 11.9354 and 18.4849 and 9.205 | 10.4509 and 13.1415 and 9.783 | 9.423 and 12.7271 and 15.286 | 9.542 and 20.0758 and 23.4336 | 13.1296 and 21.6675 and 76.706 | 11.2909 and 29.034 and 72.4977 | –
CCOP(=O)(OCC)Oc1ccc([N+](=O)[O-])cc1 [Paraoxon] | – | 10.8821 and 10.8818 and 16.2674 | 11.8181 and 17.5251 and 16.6639 | 24.3604 and 44.2392 and 23.2398 | 60.5829 and 64.6146 and 19.0156 | 14.8147 and 62.8846 and 19.484 | 35.1388 and 74.2295 and 30.1748 | 83.5675 and 57.6349 and 70.6242 | 100.899 and 20.8486 and 98.4357 | 11.9047 and 18.1515 and 10.4931 | 11.0975 and 13.4157 and 8.837 | 12.5918 and 18.7436 and 9.615 | 11.1224 and 13.1225 and 9.775 | 10.0591 and 11.6876 and 14.7625 | 10.1585 and 20.7126 and 25.0764 | 13.1804 and 18.2375 and 74.7884 | 12.8083 and 10.7531 and 85.8371 | –
CCCCCCC(C)(C)c1ccc(C2CCCC(O)C2)c(O)c1 (stereo not shown) [CP 47,497, cannabicyclohexanol] | – | – | – | – | – | – | – | – | – | – | – | – | – | – | – | – | – | ELISA signal generation, receptor cross-reactivity (source data) ([4]; cannabinoid at 2 nM, 497): 0.117 and 0.142 and 0.12; ELISA signal generation, receptor cross-reactivity (source data) ([4]; cannabinoid at 2 μM, 497): 0.105 (2×) and 0.078; selectivity of Y2H response of the sensor evolved for the ligand [1]: selectively responds
CCCn1cc(C(=O)c2cccc3ccccc23)c2ccccc21 [JWH-072] | 50 | – | – | – | – | – | – | – | – | – | – | – | – | – | – | – | – | ELISA signal generation, receptor cross-reactivity (source data) ([4]; cannabinoid at 2 nM): 0.289 and 0.097 and 0.074; ELISA signal generation, receptor cross-reactivity (source data) ([4]; cannabinoid at 2 μM): 0.219 and 0.29 and 0.268
CCCCCn1cc(C(=O)c2cccc3ccccc23)c2ccccc21 [JWH-018] | 500 | – | – | – | – | – | – | – | – | – | – | – | – | – | – | – | – | –
